Measured values from publication PMC3433560 (Bioorganic & medicinal chemistry letters, 2012).

Target: KCNQ1 channels (Homo sapiens, UniProt P51787)
Assay: cell-based

Chain of KCNQ1 channels (P51787 whole entry): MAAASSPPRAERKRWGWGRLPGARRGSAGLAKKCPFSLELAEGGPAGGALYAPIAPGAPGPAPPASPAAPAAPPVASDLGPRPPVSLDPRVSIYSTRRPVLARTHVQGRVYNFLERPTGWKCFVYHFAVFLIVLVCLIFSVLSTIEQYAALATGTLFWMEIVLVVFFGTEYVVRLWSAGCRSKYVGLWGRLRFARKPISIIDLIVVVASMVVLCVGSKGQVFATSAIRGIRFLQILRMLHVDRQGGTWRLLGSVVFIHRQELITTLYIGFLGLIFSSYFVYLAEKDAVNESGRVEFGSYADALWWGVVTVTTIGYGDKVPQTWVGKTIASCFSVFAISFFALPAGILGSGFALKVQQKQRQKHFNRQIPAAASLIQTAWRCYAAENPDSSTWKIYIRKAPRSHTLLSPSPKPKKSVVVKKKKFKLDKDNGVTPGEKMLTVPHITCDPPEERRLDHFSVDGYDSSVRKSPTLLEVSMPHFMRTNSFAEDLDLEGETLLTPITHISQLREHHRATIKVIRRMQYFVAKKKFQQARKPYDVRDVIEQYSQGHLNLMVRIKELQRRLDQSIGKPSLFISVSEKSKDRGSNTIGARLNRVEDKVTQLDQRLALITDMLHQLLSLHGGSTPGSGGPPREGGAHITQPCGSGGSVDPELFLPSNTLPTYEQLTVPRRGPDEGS

SMILES: COc1ccc(-c2csc(NC(=O)C3CCCCN3S(=O)(=O)c3ccccc3)n2)cc1 (stereo not shown) [compound 5]
- EC50: 660 nM
